Reference: patent publication US20180022810A1, “USE OF CXCR3 INHIBITORS FOR PROTECTING AGAINST FETAL WASTAGE” (Children's Hospital Medical Center, priority 2015, published 2018)

Test system: C57BL/6 female mice bearing allogeneic pregnancy sired by Balb/c males
Experiment: Fetal wastage and in utero Lm invasion after virulent Lm (strain 10403s) prenatal infection, allogeneic pregnancy
Format: in vivo
Conditions: virulent Lm 10^4 CFU, ampicillin in drinking water

With `CC1(C)S[C@@H]2[C@H](NC(=O)[C@H](N)c3ccccc3)C(=O)N2[C@H]1C(=O)O` [ampicillin] the “benefits (protection against fetal wastage)” value (treatment delayed until 24 hours post-infection) was “uniformly dissipated” and the “protection against fetal wastage” value (treatment initiated 12 hours after infection) was “near complete protection”.
